Measured values taken from patent publication US10272261B2, “Methods and compositions for treating ocular glaucoma” (Massachusetts Eye and Ear Infirmary, priority 2004, dated 2019).

Assays:
Assay type in all cases: in vivo, mouse
ciliary body [1] = experiment: TUNEL staining after PDT in DBA/2J mice; settings: 1.0 mg/kg, 180 degrees; 1 day after PDT
Method: (§1) Lectin labeling of vascular endothelial cells and TUNEL staining (to examine apoptotic cells) was performed 1 day after PDT in C57BL16 normal mice (n=2). In DBA/2J mice, only TUNEL staining was performed. PDT was performed to cover 180 degrees of the ciliary body at a dose of 4.0 mg/kg (C57BL/6) and 1.0 mg/kg (DBA/2J) verteporfin to compare the degree of staining between irradiated area and non-irradiated area. Non-operated fellow eyes (n=2) were used as controls. After sufficient anesthesia, the animals were perfused with 8 mL phosphate buffered saline (PBS) administered via a catheter in the left ventricle. After PBS perfusion, fluorescein-isothiocyanate (FITC)-coupled Concanavalin A lectin (20 μg/mL in PBS, pH 7.4, 5 mg/kg BW)(Vector Labs, Burlingame, Calif.) was then perfused to stain vascular endothelial cells. Four percent paraformaldehyde in 0.1 PBS (pH 7.4) was perfused following PBS perfusion to remove residual unbound lectin. Enucleated eyes were fixed in 4% paraformaldehyde in 0.1 PBS overnight and were immersed in graded sucrose in 0.1 PBS. The samples were embedded in optimal cutting temperature (OCT) compound (Tissue-Tek, Tokyo, Japan), and sectioned vertically at 10-μm. TUNEL staining was performed according to the manufacturer's protocol (Fluorescein In Situ Apoptosis Detection Kit; CHEMICON International, Temecula, Calif.) to detect retinal cell death induced by PDT. […]

DBA/2J glaucoma mice = experiment: IOP measurement (applanation tonometer) after transscleral ciliary body PDT in DBA/2J glaucoma mice
Method: All experiments were performed in accordance with the Association for Research in Vision and Ophthalmology Statement for the Use of Animals in Ophthalmic and Vision Research. C57BL/6 female mice aged 3 months (n=20) were used as the normal model. DBA/2J female mice aged 8 months (n=20) were used as the glaucoma mouse model. One eye of each animal was treated and the other eye served as a control (for both the normal and glaucoma models). Animals were housed in covered cages, were fed with a standard rodent diet ad libitum and were kept under constant 12 hour light-12 hour dark cycles. For general anesthesia, a mixture of ketamine (100 mg/kg) and xylazine (9 mg/kg) was administered intraperitoneally.
DBA/2J mice spontaneously develop essential iris atrophy, pigment dispersion, and glaucomatous changes. The IOP becomes elevated in most mice by the age of 9 months, which can be followed by ganglion cell loss, optic nerve atrophy and optic nerve cupping. As glaucoma developed, ganglion cell loss and mild cupping of the optic nerve were present in some animals by 11 months and in the majority of mice by the age of 22 months.
Verteporfin photosensitizer (Novartis Ophthalmics, Inc., Duluth, Ga.) was used in these experiments. The mice were systemically anesthetized prior to PDT, and the photosensitizer dye was administered to the animals by tail vain injections using a 30 G needle 5 minutes before laser irradiation. A dose of 2.0 or 4.0 mg/kg was used in C57BL/6 normal mice and of 1.0 mg/kg was used in DBA/2J mice. The laser irradiation to the ciliary body was applied transsclerally using a 600 μm optical fiber at a wavelength of light of 689 nm from a Diode Laser, with an irradiance of 1800 mW/cm^2 and a fluence of 100 J/cm^2 (Lumenis, Santa Clara, Calif.). Transscleral irradiation of the ciliary body was performed with applications for 360 degrees of the corneoscleral limbus in C57BL/6 normal mice and for 180 degrees in DBA/2J mice. In the C57BL/6 and DBA/2J mice, 16 and 8 spots, respectively, were irradiated to overlap with one another. In the eyes prepared for lectin labeling and terminal deoxynucleotide transferase-mediated nick end labeling (TUNEL) staining (a measure of apoptosis), PDT was performed in C57BL/6 mice to cover 180 degrees of the ciliary body at a 4.0 mg/kg verteporfin dose to compare the degree of staining between irradiated area and non-irradiated area. Retreatment was performed in C57BL/6 normal mice which had been treated with 2.0 mg/kg of verteporfin after the IOP measurement at post-PDT day 7 using the same light parameters.
The IOP was measured using a previously reported applanation tonometer (Ahamed et al. (2003) IOVS 44:ARVO E-Abstract 3336) (n=12 in DBA/2J mice, n=5 in C57BL/6 mice at each dose). The principle of applanation tonometry employs fiber-optic gauges which are designed around a Fabry-Perot interferometer (FPI) (FTI-10; FISO Technologies, Inc., Quebec, Canada). FPI consists of two mirrors facing each other, the space separating the mirrors being called the cavity length. Light reflected in the FPI is wavelength-modulated in exact accordance with the cavity length. […]
IOP was measured under general anesthesia. […]
As soon as the mice were anesthetized sufficiently, they were placed on a surgical platform. When the pressure sensor applanated a central area of mouse cornea under a dissecting microscope, the IOP (psi) was measured by the device 10 times automatically. […]

DBA/2J mice = experiment: Ocular complications of ciliary body PDT in DBA/2J mice (preliminary and changed parameters)
ciliary body [2] = experiment: Lectin labeling of vascular endothelial cells and TUNEL staining after PDT in C57BL/6 normal mice; settings: 4.0 mg/kg, 180 degrees; 1 day after PDT
Method: as §1

verteporfin
TUNEL positive (apoptotic) cells (ciliary body [1]): Many TUNEL positive cells were seen in the ciliary process in both the treated and untreated sides of the treated eye | mean IOP of treated eyes (DBA/2J glaucoma mice; 1.0 mg/kg i.v., 689 nm, 100 J/cm^2, 180 degrees, 1 day after treatment): 15.9±5.7 mmHg | difference of mean IOP between fellow control eyes and treated eyes (DBA/2J glaucoma mice; 1.0 mg/kg, 180 degrees, 1 day after PDT): no significant difference | mean IOP of treated eyes (DBA/2J glaucoma mice; 1.0 mg/kg, 180 degrees, 3 days after PDT): 9.5±3.4 mmHg | reduction of mean IOP of treated eyes compared to fellow control eyes (DBA/2J glaucoma mice; 1.0 mg/kg, 180 degrees, 3 days after PDT, p<0.05): 40.8% | IOP reduction (DBA/2J glaucoma mice; 1.0 mg/kg, treatment of 180°): significant reduction of IOP | ocular complications (DBA/2J mice; 2 mg/kg, irradiated in 360 degrees of the corneoscleral limbus (preliminary)): severe damage such as corneal edema, hyphema, and corneal neovascularization occurred with high frequency | ocular complications (DBA/2J mice; after change of parameters (1.0 mg/kg, 180 degrees)): these complications were not seen | TUNEL positive (apoptotic) cells (ciliary body [2]): some TUNEL positive cells in the ciliary body and retina of the PDT treated eyes | lectin staining of ciliary body vessels on the treated side (ciliary body [2]): showed little staining with lectin
